Here are results for five compounds from US20080226718A1, “Indole and Azaindole Derivatives For the Treatment of Inflammatory and Autoimmune Diseases” (Brane Discovery S.r.l, priority 2005, published 2008).

Test [1] concerns encephalitogenic lymphocytes. Briefly: Spontaneous adhesion of encephalitogenic T cells on purified ICAM-1. It counts as cell-based, SJL mice. Conditions: Mus musculus, Lymphocyte, 1 h; for inhibition at 5 µM: [cpd] 5 μM, read-out: Inhibition of Spontaneous Adhesion in encephalitogenic lymphocytes (% of control/non-treated cells) ICAM-1; for inhibition at 10 µM: [cpd] 10 μM; for inhibition at 10 µM / inhibition at 50 µM: read-out: Inhibition of Spontaneous Adhesion in encephalitogenic lymphocytes (% of control/non-treated cells) ICAM-1 (converted); for inhibition at 50 µM: [cpd] 50 μM. The method, then: Spontaneous adhesion of encephalitogenic lymphocytes was measured in adhesion assays on purified ICAM-1 and VCAM-1 as previously described (Constantin G. et al., J. Immunol. 162, 1144-1149, 1999). Autoreactive T cells were obtained from SJL mice immunized with PLP139-151 as described (Piccio L. et al., J. Immunol. 168, 1940-1949, 2002). Lymphocytes were treated with test compound at concentrations between 5-100 μM for 1 h, while control/untreated cells were treated with vehicle (DMSO). Results are expressed as percentage of inhibition over control (=100%) ±S.D and are the mean of three-four experiments.
ICAM-1 and VCAM-1 are adhesion molecules from the family of immunoglobulins and control the migration of lymphocytes through the endothelium during inflammatory responses. Encephalitogenic T cells are activated lymphocytes displaying spontaneous adhesion on ICAM-1 and VCAM-1 and have increased migration capacities in inflammation sites. Spontaneous adhesion of encephalitogenic lymphocytes was measured in adhesion assays on purified ICAM-1 and VCAM-1 as described in the method.

For test [2], the system named is PMNs. Briefly: Chemotaxis assay, PMNs (fMLP). Conditions: Homo sapiens, fMLP 10 nM, 2 h; for inhibition at 10 µM: [cpd] 10 μM; for inhibition at 25 µM: [cpd] 25 μM; for inhibition at 50 µM: [cpd] 50 μM. It counts as cell-based. Here is the method:
(§1) PMNs and monocytes migration was assessed using 1 or 3-μm pore size transwells (Bio-Coat Becton-Dickinson), while lymphocytes by using 5-elm pore size transwells.
(§2) Cells were in RPMI1640, containing 10% heat-inactivated Fetal Calf Serum (FCS) and 20 mM HEPES, pH 7.3, at 2×10^6/ml. 100 μl of cell suspension were added to the top well, and 600 μl of medium, containing chemoattractants and test compound, were added to the bottom well. Migration was evaluated after 2 h for PMNs and monocytes and after 4 h for lymphocytes. fMLP 10 nM (PMNs and monocytes) and MIP-3β 100 nM (lymphocytes) were utilized as chemoattractants. After fixation with 1.5% glutaraldehyde, migrated cells were counted by fluorescence-activated celli sorting using polystyrene beads (Polyscience) as an internal standard (Campbell J. J. et al. J. Cell. Biol. 134, 255-266, 1996; Laudanna C. et al. J. Biol. Chem. 273,46, 30306-30315, 1998).
(§3) Results are expressed as percentage of inhibition over control (=100%), and are the mean of three experiments.

Test [3] relates to lymphocytes. Nature of the test: Chemotaxis assay, lymphocytes (MIP-3β). It counts as cell-based. Conditions: Homo sapiens, Lymphocyte, MIP-3β 100 nM, 4 h; for inhibition at 10 µM: [cpd] 10 μM, read-out: Inhibition of Chemotaxis (%) Lymphocytes (MIP3-β); for inhibition at 25 µM: [cpd] 25 μM; for inhibition at 25 µM / inhibition at 50 µM: read-out: Inhibition of Chemotaxis (%) Lymphocytes (MIP3-β) (converted); for inhibition at 50 µM: [cpd] 50 μM. Here is the method:
as §1, §2, §3

Test [4] relates to lymphocytes. Nature of the test: Chemokine-induced rapid adhesion of lymphocytes to ICAM-1 (MIP3β). The test is classed as cell-based. The settings on record: Homo sapiens, Lymphocyte, MIP3β 1 μM; for inhibition at 10 µM: [cpd] 10 μM, read-out: Inhibition of Adhesion (%) Lymphocytes (MIP3-β); for inhibition at 25 µM: [cpd] 25 μM; for inhibition at 25 µM / inhibition at 50 µM: read-out: Inhibition of Adhesion (%) Lymphocytes (MIP3-β) (converted); for inhibition at 50 µM: [cpd] 50 μM. Here is the method: (§4) Adhesion was performed on purified integrin ligands and was evaluated as reported in Constantin G. et al., Immunity, 16, 759-769, 2000. Briefly, primary naïve lymphocytes, polymorphonuclear neutrophils (PMNs) or monocytes were isolated form healthy donors. In other experiments, murine autoreactive T cells were obtained from SJL mice immunized with PLP139-151 as described (Piccio L. et al., J. Immunol, 168, 1940-1949, 2002). Cells were resuspended at 4×10^6/ml in PBS, CaCl2, MgCl2 1 mM, 10% FCS, pH 7.2. Adhesion assays were performed on eighteen well glass slides coated overnight at 4° C. with ligands for CR3 (fibrinogen) or LFA-1 (ICAM-1). 20 μl of cell suspension were added to the wells and stimulated at 37° C. with 5 μl of agonists prior to washing, fixation and computer-assisted enumeration of bound cells.
(§5) Integrin activation was measured as induction of rapid adhesion triggered by the classical chemoattractant N-formyl-L-methionyl-L-leucyl-phenylalanine (fMLP) (100 nM) or by the CC chemokine MIP3β (CCL19, 1 μM). PMNs and monocytes were triggered to adhere to fibrinogen (CR3 ligand); naive human lymphocytes or murine encephalitogenic T cells were triggered to adhere to ICAM-1 (LFA-1 ligand). Triggered adhesion was evaluated after 2 min of stimulation under static conditions. The cells were pretreated at 37° C. for 30-60 min with the indicated concentrations of the test compound. Results are expressed as percentage of inhibition over control (=100%) and are the mean of three experiments in the case of human leukocytes. Results are expressed as mean counts and are the mean counts ±S.D of three experiments and are the mean of three experiments in the case of murine encephalitogenic lymphocytes.
(§6) Integrin activation was measured as induction of rapid adhesion triggered by the “classical” chemoattractant fMLP (100 nM) or by the CC chemokine MIP3β (CCL19, 1 μM). PMNs were triggered to adhere to fibrinogen (CR3 ligand); lymphocytes were triggered to adhere to ICAM-1 (LFA-1 ligand).

In test [5] the test system is PMNs. Briefly: Chemokine-induced rapid adhesion of PMNs to fibrinogen (fMLP). The test is classed as cell-based. The settings on record: Homo sapiens, 2 min, fMLP 100 nM; for inhibition at 10 µM: [cpd] 10 μM; for inhibition at 25 µM: [cpd] 25 μM; for inhibition at 50 µM: [cpd] 50 μM. Here is the method: as §4, §5, §6
In test [6] the test system is monocytes. Nature of the test: Chemotaxis assay, monocytes (fMLP). The test is classed as cell-based. Conditions: Homo sapiens, Monocyte, fMLP 10 nM, 2 h; for inhibition at 10 µM: [cpd] 10 μM; for inhibition at 25 µM: [cpd] 25 μM; for inhibition at 50 µM: [cpd] 50 μM. The method, then:
as §1, §2, §3

Test [7] has as its system monocytes. Briefly: Chemokine-induced rapid adhesion of monocytes to fibrinogen (fMLP). Conditions: Homo sapiens, Monocyte, fMLP 100 nM; for inhibition at 10 µM: [cpd] 10 μM; for inhibition at 25 µM: [cpd] 25 μM; for inhibition at 50 µM: [cpd] 50 μM. The test is classed as cell-based. Here is the method:
as §4, §5

For test [8], the system named is encephalitogenic lymphocytes. Briefly: Chemokine-induced adhesion of murine encephalitogenic T cells to ICAM-1. The test is classed as cell-based, SJL mice. The settings on record: ICAM-1; for Chemokine-induced Adhesion in encephalitogenic lymphocytes, Mean counts ± S.D., in presence of MIP3-β stimulation: 1 μM CCL19 (MIP-3beta). Here is the method: as §4, §5
Chemokines trigger rapid arrest of lymphocytes in blood vessels through pertussis toxin-sensitive G protein coupled receptors. Rapid adhesion to purified ICAM-1 was measured in in vitro adhesion assays using control/untreated cells and lymphocytes treated with concentration between 5-50 μM for 1 h. Autoreactive lymphocytes were then stimulated with 1 μM CCL19 (MIP-3beta) for 3 min. […] These compounds were already efficient in blocking adhesion using a concentration of 5 μM for the cell treatment.

SMILES strings stand for the structures.

Consider `COc1cc2[nH]c(C(=O)N3CCOCC3)c(-c3ccccc3)c2cc1OC` [Example 47], for which the inhibition at 5 µM in test [1] came out at 7.1%. Further, the inhibition at 10 µM in test [1] is 17.2%; with PMNs [2], 75.4%; with lymphocytes [3], 44.3%; in the test on lymphocytes [4] it was 43.8%; in the test on PMNs [5] it was 16.6%; in the test with monocytes [6], 56.5%. Besides, in the test on monocytes [7], the inhibition at 10 µM came to 8.7%. Besides, the inhibition at 50 µM is 93.4% in test [1]; 96.1% in the test with PMNs [2]; 88.2% in the test on lymphocytes [3]; 77.5% in the test on lymphocytes [4]; 45.4% in the test with PMNs [5]; 93.9% in the test on monocytes [6]. In addition, in the test with monocytes [7], the inhibition at 50 µM was 22.4%. For the same compound, the inhibition at 25 µM in the test on PMNs [2] is 87.5%; in the test on lymphocytes [3] it was 66.6%; in the test on lymphocytes [4], 52.5%; in the test with PMNs [5] it was 37.1%; in the test on monocytes [6] it was 82.4%; with monocytes [7], 14.4%.
On to `COc1ccc(-c2c3n(c4cc(OC)c(OC)cc24)CC(=O)NC3)cc1` [Example 66], for which, in test [1], the inhibition at 5 µM was determined as 15%. In addition, the inhibition at 10 µM in test [1] is 33.7%; with PMNs [2], 50%; in the test with lymphocytes [3] it was 57.5%; in the test with lymphocytes [4], 61.3%; with PMNs [5], 6.1%; in the test on monocytes [6], 43.9%. This compound also came in with an inhibition at 10 µM in the test on monocytes [7] of 11.3%. Also, the inhibition at 50 µM in test [1] was 92.9%; in the test with PMNs [2] it was 92.6%; in the test with lymphocytes [3] it was 87.7%; in the test on lymphocytes [4], 79%; in the test on PMNs [5] it was 17.2%; with monocytes [6], 92.7%. The compound further showed an inhibition at 50 µM in the test with monocytes [7] of 40.4%. The inhibition at 25 µM was 77.8% with PMNs [2]; 89.6% in the test with lymphocytes [3]; 68.1% with lymphocytes [4]; 11.5% in the test with PMNs [5]; 74.4% in the test on monocytes [6]; 28.7% with monocytes [7].
On to `CNC(=O)c1[nH]c2cc(OC)c(OC)cc2c1-c1ccccc1` [Example 48], for which the inhibition at 5 µM in test [1] was found to be 37.5%. Besides, the inhibition at 10 µM in test [1] was 65.6%; in the test on PMNs [2] it was 82.4%; in the test with lymphocytes [3], 48.9%; in the test with lymphocytes [4], 53.7%; in the test on PMNs [5] it was 18%; with monocytes [6], 71.7%. For the same compound, the inhibition at 10 µM in the test on monocytes [7] amounted to 7.5%. In addition, the inhibition at 50 µM was 95.6% in test [1]; 96.4% in the test with PMNs [2]; 94.9% with lymphocytes [3]; 91.5% in the test on lymphocytes [4]; 53.7% with PMNs [5]; 96.5% in the test with monocytes [6]. For the same compound, the inhibition at 50 µM with monocytes [7] was 31.7%. For the same compound, the inhibition at 25 µM was 87.8% in the test on PMNs [2]; 77.3% in the test with lymphocytes [3]; 77.3% with lymphocytes [4]; 48.9% in the test on PMNs [5]; 90.4% in the test with monocytes [6]; 22.5% in the test with monocytes [7].
For `COc1ccc(-c2c3n(c4cc(OC)c(OC)cc24)CCOC3)cc1` [Example 76], the “Chemokine-induced Adhesion in encephalitogenic lymphocytes, Mean counts ± S.D., in presence of MIP3-β stimulation” value in test [8] ([cpd] 1 μM) is 102.9 ± 2.9; in test [8] ([cpd] 5 μM), 87.7 ± 12.0; in test [8] ([cpd] 50 μM), 66.6 ± 1.8. Also, the “Adhesion in encephalitogenic lymphocytes, Mean counts ± S.D., in absence of MIP3-β stimulation” value amounted to 36.9 ± 4.0 in test [8] ([cpd] 1 μM), 28.3 ± 8.9 in test [8] ([cpd] 5 μM) and 23.0 ± 1.9 in test [8] ([cpd] 50 μM). Also, the inhibition at 100 µM in the test with PMNs [5] ([cpd] 100 μM) was 66%.
For `COc1ccc(-c2c(C(N)=O)[nH]c3cc(OC)c(OC)cc23)cc1` [Example 14], the figures for the “Chemokine-induced Adhesion in encephalitogenic lymphocytes, Mean counts ± S.D., in presence of MIP3-β stimulation” value in test [8] ([cpd] 1 μM), in test [8] ([cpd] 5 μM) and in test [8] ([cpd] 50 μM) were 120.3 ± 9.8, 101.2 ± 6.1 and 56.8 ± 2.2, respectively. In addition, the “Adhesion in encephalitogenic lymphocytes, Mean counts ± S.D., in absence of MIP3-β stimulation” value was 67.6 ± 2.0 in test [8] ([cpd] 1 μM), 41.8 ± 4.2 in test [8] ([cpd] 5 μM) and 20.9 ± 11.7 in test [8] ([cpd] 50 μM).
